Paper doi:10.1101/2024.03.13.583470v1, “SARS-CoV-2 methyltransferase nsp10-16 in complex with natural and drug-like purine analogs for guiding structure-based drug discovery” (biorxiv, 2024)

Legend:
nsp10-16 [1] = target: T1, nsp10-16 (Severe acute respiratory syndrome coronavirus 2, UniProt P0DTD1); experiment: ITC or other biophysical method (nanoDSF, MST), not given; format: binding
T1 construct: gene rep

nsp10-16 [2] = target: T1, nsp10-16; experiment: X-ray crystallography, soaking; format: binding; conditions: SAM site, fully replaces SAM; 10 mM soak, pH 6.5

| SMILES | KD (nsp10-16 [1]) | X-ray crystallography, soaking (nsp10-16 [2]) |
| --- | --- | --- |
| C[S+](CC[C@H](N)C(=O)O)C[C@H]1O[C@@H](n2cnc3c(N)ncnc32)[C@H](O)[C@@H]1O (some centres unmarked) [S-adenosyl methionine] | measurable binding of the tested ligands within the investigated ligand concentrations applied, except for | – |
| Nc1ncnc2c1ncn2[C@@H]1O[C@H](CO)[C@@H](O)[C@H]1O [adenosine] | – | electron density is observed in the adenosine cavity while SAM is fully replaced |
